Laboratory results from US10117866B2, “Promoting axon regeneration in the adult CNS through control of protein translation” (CHILDREN'S MEDICAL CENTER CORPORATION, priority 2008, dated 2018).

Target: PTEN (Homo sapiens, UniProt P60484)
Assay: PTEN inhibition assay (malachite green phosphate release), IC50 determination
Format: biochemical
Conditions: not given
Description: PTEN inhibitors are evaluated in an inhibition assay conducted in half-volume 96 well plates in 25 ul total volume per well containing 2 mM dithiothreitol (DTT) and 0.1 mM Tris buffer, pH 8.0 and up to 3 ug total protein of PTEN. Small volumes of the test inhibitor candidates (stock concentrated solutions of 25 mM in DMSO) are mixed with the PTEN solution at room temperature for about 10 minutes and then substrate is added. The reaction mix is then incubated in 37° C. for 20 minutes. Subsequent to this a 100 ul aliquot of malachite green buffer (Upstate, Charlottesville, Va.) is added to develop the color in the dark at room temperature (this solution also stops the dephosphorylation reaction). A SpectraMax Plus spectrophotometric plate reader (Molecular Devices, Sunnyvale, Calif.) is used to measure the optical density at 650 nanometers. […]
To determine the dose response of potential PTEN inhibitors, doses of test compounds ranging from 1 nM to 250 uM (final reaction mix concentrations) are evaluated in the general PTEN inhibition assay (supra). […] Once the concentration range is determined, at which PTEN activity changes dramatically, two additional concentration data points within this range are added and the PTEN inhibition assay is then rerun for the second round. […]

PTEN, sequence (P60484 whole entry, species assumed): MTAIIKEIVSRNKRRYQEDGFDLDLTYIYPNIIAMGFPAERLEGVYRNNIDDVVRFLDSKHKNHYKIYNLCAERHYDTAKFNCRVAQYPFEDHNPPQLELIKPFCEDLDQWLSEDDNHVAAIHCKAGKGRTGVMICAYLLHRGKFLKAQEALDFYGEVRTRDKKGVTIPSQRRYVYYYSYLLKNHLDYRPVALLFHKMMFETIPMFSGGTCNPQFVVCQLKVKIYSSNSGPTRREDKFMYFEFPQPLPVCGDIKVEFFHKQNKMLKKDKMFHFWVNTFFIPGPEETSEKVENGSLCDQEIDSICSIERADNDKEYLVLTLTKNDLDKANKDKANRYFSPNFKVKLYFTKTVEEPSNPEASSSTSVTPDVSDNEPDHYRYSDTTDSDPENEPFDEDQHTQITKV

| Compound | IC50 [nM] |
| --- | --- |
| CC(C)(C)C(=O)Nc1cnc2c(c1)C(=O)C(=O)c1cccnc1-2 | 2000 |
| O=C(COc1ccccc1)Nc1cnc2c(c1)C(=O)C(=O)c1cccnc1-2 | 300 |

Tested on: dorsal corticospinal tract (CST) axons
Assay: Spinal injury (dorsal corticospinal tract transection) in rats, intrathecal or intravenous PTEN inhibitor
Format: in vivo, Sprague Dawley rats
Conditions: intrathecal or intravenous administration, rat spinal injury model
Text: Methodology for this animal study was adapted from Nash et al (J. Neurosci (2002) 22:7111-7120), Luo et al (Molecular Pain (2005) 1:29), and Obata et al (J. Neurosci. (2004) 24:10211-22).
Adult Sprague Dawley rats ([…]) are trained and tested in a directed forepaw reaching (DFR) apparatus which measures grasping ability. The apparatus, which is described in detail by Nash et al., supra, is a box that consists of two compartments: a main compartment for housing the rats and a minor compartment for the food, separated by a PLEXIGLAS™ divider. The minor compartment is subdivided into slots of equal size, each holding a pellet of food. Between the slots and the PLEXIGLAS™ there is a gap. The apparatus is configured such that in order to retrieve a food pellet from a slot, a rat must extend a forelimb through a hole in the PLEXIGLAS™ divider, and grasp the pellet and lift it over the gap and out of the slot. If the rat merely rakes the food in the slot towards the hole in the PLEXIGLAS™, the food will drop from the slot into the gap and fall to the floor of the minor compartment. The floor of the minor compartment can be configured to allow a rat to retrieve food that drops or it can be lowered to prevent the rat from reaching dropped food. Prior to inducing spinal injury, the rats are food restricted, receiving ˜[…] body weight per day, before and throughout training and testing. Weight is monitored to ensure that rats are reduced to no less than 80% of their original body weight at any time. All rats are given shaping periods for 2-3 d in the box to allow them to learn the task while they become familiar with the testing situation. Animals are trained twice per day for 5 d and then tested twice per day for 5 d, and presurgical DFR data is collected. During the testing period, rats are given 5 min to complete the task and are allowed to make as many attempts as they want during this time period. Rats are required to return to at least 95% of their original weight to ensure that they are healthy before undergoing surgery.
Rats are randomly assigned to control or experimental groups. Sham control rats undergo surgical procedure without lesioning, and with or without placement of a mini osmotic pump (Alzet type 2001; Durect, Cupertino, Calif.). Lesioned control rats receive no treatment, tail vein injection with vehicle only treatment, insertion of a mini osmotic pump only treatment, or insertion of a mini osmotic pump with vehicle only treatment. After anesthesia with isoflurane, the rats are placed on an operating board in such a way as to bend the cervical spinal cord for maximum exposure. A laminectomy is performed exposing the dorsum of the spinal cord between C2 and C4. […]

| Compound | axonal regeneration after spinal injury |
| --- | --- |
| O.O.O.OO.OO.[K+].[OH-].[V].c1cnc2c(c1)ccc1cccnc12 [bpV(phen), potassium bisperoxo(1,10-phenanthroline)oxovanadate (V)] | can be promoted |
| O.O.O=C([O-])c1ccccn1.OO.OO.[K+].[K+].[OH-].[V] [bpV(pic), dipotassium bisperoxo(picolinato)oxovanadate (V)] | can be promoted |
| dipotassium bisperoxo(5-hydroxypyridine-2-carboxyl)oxovanadate (V) [bpV(HOpic)] | can be promoted |
| potassium bisperoxo(bipyridine)oxovanadate (V) [bpV(bipy)] | can be promoted |
